Measurements: the NIST ThermoML archive (doi:10.1021/acs.jced.8b01256)
± gives the expanded uncertainty stated by the source.

Assays:
[1] = Crystal; DSC
[2] = Molar enthalpy of transition or fusion; details: Crystal; DSC

Triple point temperature [1]: 460.15 ± 1 K
Molar enthalpy of transition or fusion [2]: 2.55 ± 0.0908 kcal/mol
Compound: Cc1[nH]nc2cc([N+](=O)[O-])ccc12 [3-methyl-6-nitroindazole]
